The subject of data set [1] is p53. Description: Western blot for p53 in MCF7 cells treated with oligonucleotides. The format is cell-based, human. Conditions: MCF7 cells (FIG. 29A). On the technique in general: Immunoblotting shows a protein as a band on a membrane.
Another data set relates to mutant p53 (R248W). Description: Western blot for mutant p53 in MIA-PaCa-2 cells treated with oligonucleotides. It is filed as cell-based. As to conditions: p53 R248W (FIGS. 29A, 29B). An excerpt: FIGS. 29A-29C show data illustrating the effects of oligonucleotides of the present invention with respect to wild type and mutant p53. […] Oligonucleotide sequences were as follows: M3, SEQ ID NO:14; 14A/G, SEQ ID NO:20; 14U/G, SEQ ID NO:49; 15A, SEQ ID NO:21; 6A/G, SEQ ID NO:45; 6U/G, SEQ ID NO:46; 10A/G, SEQ ID NO:47; 10 U/G, SEQ ID NO:48.
FIGS. 29A and 29B show the results of experiments exploring the effects of oligonucleotides of the present invention on wild type and mutant p53. Oligonucleotides M3, 14A/G, 15A, and 6U/G were used to treat MCF7 cells expressing wild type p53 and MIA-PaCa-2 cells expressing mutant p53 (R248W). […] The effect was limited to the 6U/G oligonucleotide. […] Oligonucleotide sequences were as follows: M3, SEQ ID NO:14; 14A/G, SEQ ID NO:20; 14U/G, SEQ ID NO:49; 15A, SEQ ID NO:21; 6A/G, SEQ ID NO:45; 6U/G, SEQ ID NO:46; 10A/G, SEQ ID NO:47; 10 U/G, SEQ ID NO:48.

Another data set relates to RKO cells. In words: RKO cell colony formation assay (peptides). The format is cell-based, human. Conditions: 5 μM, 3.125 ng/mL doxorubicin 48 hours (FIG. 34D). The method, then:
For the experiments shown in FIG. 34D, RKO cells were seeded on a 6-well plate at a seed density of 2×10^3 cells per well. The following day the cells were treated with 5 μM Pen-Ctrl, 5 μM Pen-Pep23, or 5 μM Pen-Pep8. The following day, 3.125 ng/mL doxorubicin was added to the cells for 48 hours. Subsequently, the cell media was changed every 3 days until colonies were visible. The cells were fixed and stained with crystal violet.

The test system of data set [2] is tumor cell colony formation. Description: Tumor cell colony formation assay, cell line not stated (FIGS. 13C, 20D). The format is cell-based. As to conditions: with and without doxorubicin 6.25 ng/mL; versus Pen-Ctrl (FIG. 20D).
Data set [3] deals with MIA-PaCa-2 pancreatic cancer cells. In words: MIA-PaCa-2 cell colony formation assay (peptides). It is filed as cell-based, human. As to conditions: miaPaCa2 cells (mutant p53); 10 μM for 20 minutes then 0.25 ng/mL doxorubicin 18 hours (FIG. 37D). An excerpt: […] […] After colonies formed they were fixed (i.e., using 7:1 MeOH:glacial acetic acid) and stained with crystal violet.

The test system of data set [4] is p53. In words: Western blot for p53 and downstream targets in MCF7 cells treated with peptides. Conditions: MCF7 cells; 2.5 μM; 18 hours (FIG. 32C). It is filed as cell-based, human.
Data set [5] relates to p53. In words: Western blot for p53 and downstream targets in RKO cells treated with peptides. The format is cell-based, human. Conditions: RKO cells.
The next data set deals with HaCaT cells. Description: HaCaT cell colony formation assay. It is filed as cell-based. As to conditions: HaCaT cells (mutant p53); 10 μM for 20 minutes then 0.5 ng/mL doxorubicin 18 hours (FIG. 37D). Here is the method: For the experiments shown in FIG. 37D, HaCaT and MiaPaCa2 cells were grown in 6-well plates at 500 cells per well. The following day, 10 μM Pen-Ctrl (SEQ ID NO:10), Pen-Pep23 (SEQ ID NO:9), or Pen-Pep8 (SEQ ID NO:50) were added to the cells for 20 minutes followed by treatment with 0.5 ng/mL doxorubicin (for HaCaT cells) or 0.25 ng/mL doxorubicin (for miaPaCa2 cells) for 18 hours, then the media was changed to fresh DMEM. After colonies formed they were fixed (i.e., using 7:1 MeOH:glacial acetic acid) and stained with crystal violet.

The next data set relates to MCF7 cells. In words: MCF7 cell colony formation assay (peptides). The format is cell-based, human. As to conditions: MCF7 cells; 5 μM; 6.25 ng/mL doxorubicin 48 hours (FIG. 34C). The method, then: In order to test the effect of the RBM38 and eIF4E peptides on cancer cell colony formation, MCF7 cells were seeded in 6-well plates at a density of 1×10^3 cells per well. The following day, cells were treated with peptides. In order to form stable complexes with PEP1, 100 μl of serum-free DMEM was added to individual Eppendorf tubes. Control (SEQ ID NO:11), RBM38, and eIF4E peptides were added at a concentration of 375 nM and then 7.5 μg of PEP1 was added to each peptide (20:1). The complexes were incubated for 20 minutes at room temperature and then added dropwise to cells. Cell media was changed every three days until colonies were visible. The cells were fixed and then stained with crystal violet.
In order to test the effect of a combination treatment comprising peptides of the present invention and a chemotherapeutic agent on cancer cell colony formation, MCF7 cells were seeded in 6-well plates at a density of 1×10^3 cells per well. The following day, cells were treated with peptides. In order to form stable complexes with PEP1, 100 μL of serum-free DMEM was added to individual Eppendorf tubes. Control, RBM38, eIF4E, and peptide-8 peptides were added at a concentration of 375 nM and then 7.5 μg of PEP1 was added to each peptide (20:1). The complexes were incubated for 20 minutes at room temperature and then added dropwise to cells. 20 minutes after addition of peptide complexes, 3.125 ng/mL doxorubicin was added to the cells. Cell media was changed every three days until colonies were visible. The cells were fixed and then stained with crystal violet.
For the experiments shown in FIG. 34C, MCF7 cells were seeded on a 6-well plate at a seed density of 1×10^3 cells per well. The following day the cells were treated with 5 μM Pen-Ctrl or 5 μM Pen-Pep23. The following day, 6.25 ng/mL doxorubicin was added to the cells for 48 hours. Subsequently, the cell media was changed every 3 days until colonies were visible. The cells were fixed and stained with crystal violet.

The values that follow come from patent publication US11505574B2, “Modulation of P53 for the treatment of cancer” (THE REGENTS OF THE UNIVERSITY OF CALIFORNIA, priority 2016, dated 2022).

“UUUGUUUUUUGUUU (listed as RNA, chemistry not given here) [6U/G]”: in the data set with p53 [1], the “p53 expression in cells expressing wild type p53” value is on record as “unregulated p53 expression”. Further, the “p53 expression in cells expressing mutant p53” value with mutant p53 (R248W) is reported as “downregulated expression”.

As for “RQIKIWFQNRRMKWKKIGYQSHADTATKSGSTTKNRFVV [Pen-eIF4E, Penetratin fused to eIF4E peptide]”, the “colony formation, sensitization to low-dose doxorubicin” value in the data set with RKO cells was “sensitized MCF7 and RKO cells to low-dose doxorubicin”; in data set [3], “sensitized to low-dose doxorubicin”; in the data set with HaCaT cells it was “sensitized to low-dose doxorubicin”; in the data set on MCF7 cells, “sensitized MCF7 and RKO cells to low-dose doxorubicin”. Further, the “cell colony formation, combination with doxorubicin” value in [2] was “striking synergistic effect”. Also, the “p53 expression (Western blot)” value in the data set on p53 [4] is on record as “induced p53 expression”; in the data set on p53 [5] (2.5 μM, 18 hours (FIG. 32B)), “induced p53 expression”. Also, in the data set with p53 [5] (1.5 μM for 20 minutes then 0.125 ng/mL etoposide 18 hours (FIG. 34I)), the “sensitization to low-dose etoposide (p53 Western blot)” value is “also to low-dose etoposide”. Moreover, in the data set with p53 [5] (1.5 μM for 20 minutes then 6.25 ng/mL doxorubicin 18 hours (FIG. 34I)), the “sensitization to low-dose doxorubicin (p53 Western blot)” value was “sensitized to low-dose doxorubicin”. In addition, the “protein expression of p53 and downstream target MDM2 (Western blot)” value with p53 [5] (5 μM Penetratin fusion, 18 hours (FIG. 1F)) is “enhanced the protein expression of p53 and the downstream target MDM2”.
